Measured values published in ChEMBL document CHEMBL1201862, “PubChem BioAssay data set” (2004).
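The compound was tested at five concentrations on cells cultured in 96-well plates, with a 48-hour exposure period. Abbreviation: GI50, concentration required for 50% inhibition of growth.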 Calls of active or inactive are those of the source. Rule as the data show it: active = GI50 up to about 1.1 µM and inactive = higher.

Assays:
Test in all cases: NCI anticancer screen, dose series, 48 h
COLO 205 = test system: COLO 205
DU-145 = test system: DU-145
K562 = test system: K562
LOX IMVI = test system: LOX IMVI
MDA-MB-435 = test system: MDA-MB-435
NCI-H23 = test system: NCI-H23
NCI-H522 = test system: NCI-H522
NCI/ADR-RES = test system: NCI/ADR-RES
OVCAR-8 = test system: OVCAR-8
RXF 393 = test system: RXF 393
SF-268 = test system: SF-268
SF-295 = test system: SF-295
SR = test system: SR
TK-10 = test system: TK-10
U-251 = test system: U-251
UACC-257 = test system: UACC-257
UO-31 = test system: UO-31
A498 = test system: A498
HOP-92 = test system: HOP-92
RPMI-8226 = test system: RPMI-8226

In the case of `COc1ccc2c(c1)[n+]([O-])c(C#N)c(N1CCN(c3ccc([N+](=O)[O-])cc3)CC1)[n+]2[O-]`, the GI50 (COLO 205) is reported as 2.24 µM (inactive), the GI50 (DU-145) is reported as 8.22 µM (inactive) and the GI50 (K562) is reported as 1.45 µM (inactive). For the same molecule, the GI50 (LOX IMVI) was 2.36 µM (inactive), the GI50 (MDA-MB-435) was 5.13 µM (inactive) and the GI50 (NCI-H23) was 3.23 µM (inactive). For the same molecule, the GI50 (NCI-H522) was 1.81 µM (inactive), the GI50 (NCI/ADR-RES) was 2.45 µM (inactive) and the GI50 (OVCAR-8) was 2.09 µM (inactive). The GI50 (RXF 393) was 6.89 µM (inactive), the GI50 (SF-268) was 2.91 µM (inactive) and the GI50 (SF-295) was 3.77 µM (inactive). The GI50 (SR) was 0.41 µM (active), the GI50 (TK-10) was 9.68 µM (inactive) and the GI50 (U-251) was 2.41 µM (inactive). For the same molecule, the GI50 (UACC-257) was 4.42 µM (inactive) and the GI50 (UO-31) was < 0.01 µM (active).
In the case of `S=C(N/N=C/c1ccccn1)N1CC2CCC(CC2)C1`, the GI50 (A498) is reported as 0.119 µM (active), the GI50 (COLO 205) is reported as < 0.01 µM (active) and the GI50 (DU-145) is reported as 0.0471 µM (active). For the same molecule, the GI50 (HOP-92) was 0.0568 µM (active), the GI50 (K562) was < 0.01 µM (active) and the GI50 (LOX IMVI) was < 0.01 µM (active). For the same molecule, the GI50 (MDA-MB-435) was 0.0404 µM (active), the GI50 (NCI-H23) was < 0.01 µM (active) and the GI50 (NCI-H522) was < 0.01 µM (active). For the same molecule, the GI50 (NCI/ADR-RES) was < 0.01 µM (active), the GI50 (OVCAR-8) was < 0.01 µM (active) and the GI50 (RPMI-8226) was < 0.01 µM (active). For the same molecule, the GI50 (RXF 393) was 0.0703 µM (active), the GI50 (SF-268) was 0.0301 µM (active) and the GI50 (SF-295) was < 0.0128 µM (active). For the same molecule, the GI50 (TK-10) was < 0.01 µM (active), the GI50 (U-251) was < 0.01 µM (active) and the GI50 (UACC-257) was < 0.01 µM (active). The GI50 (UO-31) was < 0.0111 µM (active).
For `CCCCn1cnnc1NS(=O)(=O)c1cc(C)c(Cl)cc1SCC(=O)O`, the GI50 (A498) was > 10 µM (inactive), the GI50 (COLO 205) was > 10 µM (inactive) and the GI50 (DU-145) was > 10 µM (inactive). The GI50 (K562) was > 10 µM (inactive), the GI50 (LOX IMVI) was > 10 µM (inactive) and the GI50 (MDA-MB-435) was > 10 µM (inactive). The GI50 (NCI-H23) was > 10 µM (inactive), the GI50 (NCI-H522) was > 10 µM (inactive) and the GI50 (NCI/ADR-RES) was > 10 µM (inactive). For the same molecule, the GI50 (OVCAR-8) was > 10 µM (inactive), the GI50 (RPMI-8226) was > 10 µM (inactive) and the GI50 (RXF 393) was > 10 µM (inactive). For the same molecule, the GI50 (SF-268) was > 10 µM (inactive), the GI50 (SF-295) was > 10 µM (inactive) and the GI50 (TK-10) was > 10 µM (inactive). For the same molecule, the GI50 (U-251) was > 10 µM (inactive), the GI50 (UACC-257) was > 10 µM (inactive) and the GI50 (UO-31) was > 10 µM (inactive).
For `NNC1=N/C(=C\c2ccccc2O)C(=O)N1`, the GI50 (A498) was > 100 µM (inactive), the GI50 (COLO 205) was 29.6 µM (inactive) and the GI50 (DU-145) was 34.9 µM (inactive). For the same molecule, the GI50 (HOP-92) was > 100 µM (inactive), the GI50 (K562) was 28.1 µM (inactive) and the GI50 (LOX IMVI) was 24.5 µM (inactive). The GI50 (MDA-MB-435) was 61.4 µM (inactive), the GI50 (NCI-H23) was 53.6 µM (inactive) and the GI50 (NCI-H522) was 35.3 µM (inactive). For the same molecule, the GI50 (NCI/ADR-RES) was 35.8 µM (inactive), the GI50 (OVCAR-8) was 27.6 µM (inactive) and the GI50 (RPMI-8226) was 24 µM (inactive). The GI50 (RXF 393) was 49.3 µM (inactive), the GI50 (SF-268) was 31 µM (inactive) and the GI50 (SF-295) was 36 µM (inactive). The GI50 (TK-10) was 60.1 µM (inactive), the GI50 (U-251) was 33.3 µM (inactive) and the GI50 (UACC-257) was 49.2 µM (inactive). The GI50 (UO-31) was 16.6 µM (inactive).
For `CC1(C)OC2OC(COC(=O)C=[N+]=[N-])C3OC(C)(C)OC3C2O1` (centres undefined), the GI50 (A498) was > 100 µM (inactive), the GI50 (COLO 205) was > 100 µM (inactive) and the GI50 (DU-145) was > 100 µM (inactive). The GI50 (HOP-92) was > 100 µM (inactive), the GI50 (K562) was > 100 µM (inactive) and the GI50 (LOX IMVI) was > 100 µM (inactive). The GI50 (MDA-MB-435) was > 100 µM (inactive), the GI50 (NCI-H23) was > 100 µM (inactive) and the GI50 (NCI-H522) was > 100 µM (inactive). The GI50 (RPMI-8226) was > 100 µM (inactive), the GI50 (RXF 393) was > 100 µM (inactive) and the GI50 (SF-268) was > 100 µM (inactive). For the same molecule, the GI50 (SF-295) was > 100 µM (inactive), the GI50 (SR) was > 100 µM (inactive) and the GI50 (TK-10) was > 100 µM (inactive). For the same molecule, the GI50 (U-251) was > 100 µM (inactive), the GI50 (UACC-257) was > 100 µM (inactive) and the GI50 (UO-31) was > 100 µM (inactive).
For `COC(=O)C(Cc1cn(C(C)n2cc(CC(NC(C)=O)C(=O)OC)c3ccccc32)c2ccccc12)NC(C)=O` (centres undefined), the GI50 (A498) was > 100 µM (inactive), the GI50 (COLO 205) was > 100 µM (inactive) and the GI50 (DU-145) was > 100 µM (inactive). For the same molecule, the GI50 (HOP-92) was 52.5 µM (inactive), the GI50 (MDA-MB-435) was > 100 µM (inactive) and the GI50 (NCI-H23) was > 100 µM (inactive). The GI50 (NCI-H522) was 12.2 µM (inactive), the GI50 (RPMI-8226) was 83.9 µM (inactive) and the GI50 (SF-268) was 48.1 µM (inactive). The GI50 (SF-295) was 60.7 µM (inactive), the GI50 (SR) was 37.6 µM (inactive) and the GI50 (TK-10) was > 100 µM (inactive). For the same molecule, the GI50 (U-251) was > 100 µM (inactive), the GI50 (UACC-257) was > 100 µM (inactive) and the GI50 (UO-31) was 66.4 µM (inactive).
In the case of `CC(=O)OCCN(C1=NCCN1)/[N+](C=c1ccc(=C=[N-])cc1)=C/c1ccc(C#N)cc1`, the GI50 (COLO 205) is reported as > 100 µM (inactive), the GI50 (K562) is reported as > 100 µM (inactive) and the GI50 (LOX IMVI) is reported as > 100 µM (inactive). For the same molecule, the GI50 (MDA-MB-435) was > 100 µM (inactive), the GI50 (NCI-H23) was > 100 µM (inactive) and the GI50 (NCI-H522) was > 100 µM (inactive). For the same molecule, the GI50 (NCI/ADR-RES) was 94.6 µM (inactive), the GI50 (OVCAR-8) was > 100 µM (inactive) and the GI50 (RXF 393) was > 100 µM (inactive). For the same molecule, the GI50 (SF-268) was > 100 µM (inactive), the GI50 (SF-295) was > 100 µM (inactive) and the GI50 (SR) was > 100 µM (inactive). The GI50 (TK-10) was > 100 µM (inactive), the GI50 (U-251) was > 100 µM (inactive) and the GI50 (UACC-257) was > 100 µM (inactive). The GI50 (UO-31) was > 100 µM (inactive).
`O=Nc1c(-c2c(O)[nH]c3ccc(I)cc23)[nH]c2ccccc12` was tested, and the GI50 (COLO 205) was 4.26 µM (inactive), the GI50 (DU-145) was 3.35 µM (inactive) and the GI50 (HOP-92) was > 20.2 µM (inactive). The GI50 (LOX IMVI) was 2.45 µM (inactive), the GI50 (MDA-MB-435) was 4.55 µM (inactive) and the GI50 (NCI-H23) was 4.58 µM (inactive). The GI50 (NCI-H522) was 2.82 µM (inactive), the GI50 (NCI/ADR-RES) was 8.2 µM (inactive) and the GI50 (OVCAR-8) was 4.95 µM (inactive). For the same molecule, the GI50 (RPMI-8226) was 1.88 µM (inactive), the GI50 (RXF 393) was 2.36 µM (inactive) and the GI50 (SF-268) was 4.42 µM (inactive). For the same molecule, the GI50 (SF-295) was 6.28 µM (inactive), the GI50 (TK-10) was 5.38 µM (inactive) and the GI50 (U-251) was 5.62 µM (inactive). For the same molecule, the GI50 (UACC-257) was > 31.5 µM (inactive) and the GI50 (UO-31) was 2.19 µM (inactive).
